ChEMBL document CHEMBL1151638, “Hippamine, a Minor Alkaloid From Sternbergia lutea” (1984)

Test system: Solanum tuberosum
Test: Inhibition of ascorbic acid biosynthesis in potato tuber at 20 uM
Assay type: functional

SMILES | inhibition at 20 µM [%]
CO[C@H]1C=C2CCN3Cc4cc5c(cc4[C@H]([C@@H]1O)[C@@H]23)OCO5 [HIPPPAMINE] | 58
O[C@H]1[C@H]2c3cc4c(cc3CN3CCC(=C[C@@H]1O)[C@H]23)OCO4 [LYCORINE] | 80
